Measured values reported in ChEMBL document CHEMBL3885881, “DrugMatrix”.

Organism: Rattus norvegicus
Assay: DrugMatrix - Regimen: Daily Repeat
Format: toxicity, organism-based, Sprague-Dawley
Set-up: regimen Daily Repeat, gender Male, age 6-8 weeks
Conditions: in vivo, po, route oral GAVAGE, vehicle 100 % WATER; for ABSOLUTE BASOPHIL / ABSOLUTE EOSINOPHIL / ABSOLUTE LYMPHOCYTE / ABSOLUTE MONOCYTE / ABSOLUTE SEGMENTED NEUTROPHIL / BASOPHIL / EOSINOPHIL / ERYTHROCYTE COUNT / HEMATOCRIT / HEMOGLOBIN / LEUKOCYTE COUNT / LYMPHOCYTE / MEAN CORPUSCULAR HEMOGLOBIN / MEAN CORPUSCULAR HEMOGLOBIN CONCENTRATION / MEAN CORPUSCULAR VOLUME / MONOCYTE / NEUTROPHIL / NUCLEATED RED BLOOD CELLS / PLATELET COUNT: tissue Blood; for ALANINE AMINOTRANSFERASE / ALBUMIN / ALKALINE PHOSPHATASE / ASPARTATE AMINOTRANSFERASE / BLOOD UREA NITROGEN / CARBON DIOXIDE / CHLORIDE / CHOLESTEROL / CREATINE PHOSPHOKINASE / CREATININE / GLUCOSE / LACTATE DEHYDROGENASE / LIPASE / PHOSPHORUS / POTASSIUM / SODIUM / TOTAL BILIRUBIN / TOTAL PROTEIN / URIC ACID: tissue Plasma
[1] = 0 mg/kg, 72 h, dose level Control, time 3 day
[2] = 0 mg/kg, 120 h, dose level Control, time 5 day
[3] = 100 mg/kg, 72 h, dose level High, time 3 day
[4] = 100 mg/kg, 120 h, dose level High, time 5 day

## CN(C)CCOC(c1ccccc1)c1ccccc1 [DIPHENHYDRAMINE]
[1]
  ABSOLUTE BASOPHIL: 0 CELLS/uL
  ABSOLUTE EOSINOPHIL: 20.17 CELLS/uL
  ABSOLUTE LYMPHOCYTE: 12371.67 CELLS/uL
  ABSOLUTE MONOCYTE: 166 CELLS/uL
  ABSOLUTE SEGMENTED NEUTROPHIL: 1292.17 CELLS/uL
  BASOPHIL: 0%
  EOSINOPHIL: 0.17%
  ERYTHROCYTE COUNT: 5.46 x10E6/uL
  HEMATOCRIT: 34.38%
  HEMOGLOBIN: 13.32 G/DL
  LEUKOCYTE COUNT: 13.85 x10E3/uL
  LYMPHOCYTE: 88.5%
  MEAN CORPUSCULAR HEMOGLOBIN: 24.42 pg
  MEAN CORPUSCULAR HEMOGLOBIN CONCENTRATION: 38.7 G/DL
  MEAN CORPUSCULAR VOLUME: 63.07 fL
  MONOCYTE: 1.17%
  NEUTROPHIL: 10.17%
  NUCLEATED RED BLOOD CELLS: 0.17 /100WBC
  PLATELET COUNT: 1193.5 x10E3/uL
  ALANINE AMINOTRANSFERASE: 54.5 u/L
  ALBUMIN: 4.02 G/DL
  ALKALINE PHOSPHATASE: 346.5 u/L
  ASPARTATE AMINOTRANSFERASE: 103.17 u/L
  BLOOD UREA NITROGEN: 16.5 mg/dL
  CARBON DIOXIDE: 29.83 mmol/L
  CHLORIDE: 99.5 MEQ/L
  CHOLESTEROL: 72.5 mg/dL
  CREATINE PHOSPHOKINASE: 532.5 u/L
  CREATININE: 0.18 mg/dL
  GLUCOSE: 168.5 mg/dL
  LACTATE DEHYDROGENASE: 536.5 u/L
  LIPASE: 11.17 u/L
  PHOSPHORUS: 11.48 mg/dL
  POTASSIUM: 5.95 MEQ/L
  SODIUM: 140.5 MEQ/L
  TOTAL BILIRUBIN: 0.18 mg/dL
  TOTAL PROTEIN: 5.77 G/DL
  URIC ACID: 1.42 mg/dL
[2]
  ABSOLUTE BASOPHIL: 0 CELLS/uL
  ABSOLUTE EOSINOPHIL: 22.83 CELLS/uL
  ABSOLUTE LYMPHOCYTE: 12202.83 CELLS/uL
  ABSOLUTE MONOCYTE: 158 CELLS/uL
  ABSOLUTE SEGMENTED NEUTROPHIL: 1283 CELLS/uL
  BASOPHIL: 0%
  EOSINOPHIL: 0.17%
  ERYTHROCYTE COUNT: 5.88 x10E6/uL
  HEMATOCRIT: 36.62%
  HEMOGLOBIN: 14.07 G/DL
  LEUKOCYTE COUNT: 13.67 x10E3/uL
  LYMPHOCYTE: 89.5%
  MEAN CORPUSCULAR HEMOGLOBIN: 23.95 pg
  MEAN CORPUSCULAR HEMOGLOBIN CONCENTRATION: 38.43 G/DL
  MEAN CORPUSCULAR VOLUME: 62.28 fL
  MONOCYTE: 1.17%
  NEUTROPHIL: 9.17%
  NUCLEATED RED BLOOD CELLS: 0.17 /100WBC
  PLATELET COUNT: 1198 x10E3/uL
  ALANINE AMINOTRANSFERASE: 51 u/L
  ALBUMIN: 4.3 G/DL
  ALKALINE PHOSPHATASE: 343 u/L
  ASPARTATE AMINOTRANSFERASE: 89.83 u/L
  BLOOD UREA NITROGEN: 17.67 mg/dL
  CARBON DIOXIDE: 27.17 mmol/L
  CHLORIDE: 98.33 MEQ/L
  CHOLESTEROL: 82.5 mg/dL
  CREATINE PHOSPHOKINASE: 533.33 u/L
  CREATININE: 0.18 mg/dL
  GLUCOSE: 152.67 mg/dL
  LACTATE DEHYDROGENASE: 220.33 u/L
  LIPASE: 11.5 u/L
  PHOSPHORUS: 11.25 mg/dL
  POTASSIUM: 6.29 MEQ/L
  SODIUM: 140.53 MEQ/L
  TOTAL BILIRUBIN: 0.22 mg/dL
  TOTAL PROTEIN: 6.12 G/DL
  URIC ACID: 1.42 mg/dL
[3]
  ABSOLUTE BASOPHIL: 0 CELLS/uL
  ABSOLUTE EOSINOPHIL: 48.67 CELLS/uL
  ABSOLUTE LYMPHOCYTE: 13023.67 CELLS/uL
  ABSOLUTE MONOCYTE: 77 CELLS/uL
  ABSOLUTE SEGMENTED NEUTROPHIL: 750.67 CELLS/uL
  BASOPHIL: 0%
  EOSINOPHIL: 0.33%
  ERYTHROCYTE COUNT: 5.83 x10E6/uL
  HEMATOCRIT: 36.17%
  HEMOGLOBIN: 14.33 G/DL
  LEUKOCYTE COUNT: 13.9 x10E3/uL
  LYMPHOCYTE: 93.67%
  MEAN CORPUSCULAR HEMOGLOBIN: 24.6 pg
  MEAN CORPUSCULAR HEMOGLOBIN CONCENTRATION: 39.67 G/DL
  MEAN CORPUSCULAR VOLUME: 62.07 fL
  MONOCYTE: 0.67%
  NEUTROPHIL: 5.33%
  NUCLEATED RED BLOOD CELLS: 0 /100WBC
  PLATELET COUNT: 1203 x10E3/uL
  ALANINE AMINOTRANSFERASE: 46.67 u/L
  ALBUMIN: 4 G/DL
  ALKALINE PHOSPHATASE: 345.33 u/L
  ASPARTATE AMINOTRANSFERASE: 88.67 u/L
  BLOOD UREA NITROGEN: 16.67 mg/dL
  CARBON DIOXIDE: 30.33 mmol/L
  CHLORIDE: 100.33 MEQ/L
  CHOLESTEROL: 78 mg/dL
  CREATINE PHOSPHOKINASE: 422.33 u/L
  CREATININE: 0.14 mg/dL
  GLUCOSE: 146 mg/dL
  LACTATE DEHYDROGENASE: 334.67 u/L
  LIPASE: 11.67 u/L
  PHOSPHORUS: 12.1 mg/dL
  POTASSIUM: 6.05 MEQ/L
  SODIUM: 141 MEQ/L
  TOTAL BILIRUBIN: 0.17 mg/dL
  TOTAL PROTEIN: 5.67 G/DL
  URIC ACID: 1.3 mg/dL
[4]
  ABSOLUTE BASOPHIL: 0 CELLS/uL
  ABSOLUTE EOSINOPHIL: 0 CELLS/uL
  ABSOLUTE LYMPHOCYTE: 12726.67 CELLS/uL
  ABSOLUTE MONOCYTE: 228 CELLS/uL
  ABSOLUTE SEGMENTED NEUTROPHIL: 1012 CELLS/uL
  BASOPHIL: 0%
  EOSINOPHIL: 0%
  ERYTHROCYTE COUNT: 5.75 x10E6/uL
  HEMATOCRIT: 34.8%
  HEMOGLOBIN: 13.73 G/DL
  LEUKOCYTE COUNT: 13.97 x10E3/uL
  LYMPHOCYTE: 91.33%
  MEAN CORPUSCULAR HEMOGLOBIN: 23.9 pg
  MEAN CORPUSCULAR HEMOGLOBIN CONCENTRATION: 39.47 G/DL
  MEAN CORPUSCULAR VOLUME: 60.53 fL
  MONOCYTE: 1.67%
  NEUTROPHIL: 7%
  NUCLEATED RED BLOOD CELLS: 0 /100WBC
  PLATELET COUNT: 1281 x10E3/uL
  ALANINE AMINOTRANSFERASE: 54.33 u/L
  ALBUMIN: 3.93 G/DL
  ALKALINE PHOSPHATASE: 386 u/L
  ASPARTATE AMINOTRANSFERASE: 79.33 u/L
  BLOOD UREA NITROGEN: 16.67 mg/dL
  CARBON DIOXIDE: 25.67 mmol/L
  CHLORIDE: 99 MEQ/L
  CHOLESTEROL: 60 mg/dL
  CREATINE PHOSPHOKINASE: 323.33 u/L
  CREATININE: 0.11 mg/dL
  GLUCOSE: 154.67 mg/dL
  LACTATE DEHYDROGENASE: 155.33 u/L
  LIPASE: 11.33 u/L
  PHOSPHORUS: 11.47 mg/dL
  POTASSIUM: 6.2 MEQ/L
  SODIUM: 141.53 MEQ/L
  TOTAL BILIRUBIN: 0.2 mg/dL
  TOTAL PROTEIN: 5.5 G/DL
  URIC ACID: 1.97 mg/dL
